Series [1] is described as follows: Octan-1-ol-aqueous buffer partition coefficient, log P of the compound at 10 to 20 mg at pH 7.4 by UV-spectroscopic analysis. The class given is physicochemical.
Series [2] in a line: Dissociation constant, pKa of the compound in water-ethyl alcohol. The class given is physicochemical.
A short description of series [3]: Retardation factor, deltaRm of the compound at pH 13 by TLC analysis. The class given is physicochemical.
For series [4], the species on record is Rattus norvegicus. Put plainly: Hypotensive activity in rat assessed as change in mean blood pressure relative to control. The class given is functional. Details: concentration or dose not given beside the values.
Series [5] relates to Rattus norvegicus. In words: Peripheral adrenergic activity in iv dosed pithed rat assessed as change in mean blood pressure. The class given is functional.
Series [6] deals with Rattus norvegicus. In words: Toxicity in iv dosed pithed rat. The class given is organism-based. The conditions noted are these: in vivo.

A value given as a limit tells only on which side of the number the result lay.

The logD is lipophilicity at a set pH, counting ionised and neutral species. The term pKa denotes the negative logarithm of the acid dissociation constant. Compound `Clc1cc(Cl)c(N=C2NCCN2)cc1Cl` showed a logD in series [1] of 1.63. Also, the pKa in series [2] came out at 7.7. The compound also gave a deltaRm in series [3] of 1.2.

The compound `COc1cc(C)ccc1N=C1NCCN1` had a logD in series [1] of -1.56. In addition, the Activity in series [4] was under 10%. In addition, the pKa in series [2] was 10.6. The pD2 in series [5] was 6.58. The deltaRm in series [3] is -0.03.

In the case of `Cc1cc(C)c(N=C2NCCN2)c(C)c1`, in series [5], the pD2 worked out at 7.8.

With `Oc1cc(Cl)c(N=C2NCCN2)c(Cl)c1`, the log distribution coefficient (logD) in series [1] is -0.4. Moreover, the Activity in series [4] is under 10%. In series [2], this compound yielded a pKa of 7.95. In series [5], the pD2 was found to be 7.37.

`Clc1ccc(N=C2NCCN2)c(Cl)c1` gave a pH-dependent lipophilicity (logD) in series [1] of 0.69. Besides, the Activity in series [4] was 15%. This compound registered a pKa in series [2] of 8.65. In series [5], the pD2 was 6.71. Also, the deltaRm in series [3] was found to be 0.76.

With `Clc1cc(Cl)c(N=C2NCCN2)c(Cl)c1`, the Activity in series [4] was determined as 15%. The compound also showed a pKa in series [2] of 7.6. Besides, in series [5], the pD2 was determined as 7.13. This compound had a deltaRm in series [3] of 1.

Consider `Cc1cccc(C)c1N=C1NCCN1`, for which the logD in series [1] was -1.65. Moreover, in series [4], the Activity was under 10%. In addition, in series [2], the pKa is 10.5. Further, the pD2 in series [5] was found to be 7.74. In series [3], this compound came in with a deltaRm of 0.42.

As for `CCc1ccccc1N=C1NCCN1`, the pD2 in series [5] is on record as 7.55.

`Cc1ccc(NC2=NCCN2)c(Cl)c1` [TOLONIDINE] yielded a logD in series [1] of -0.28. Also, the Activity in series [4] amounted to 15%. Moreover, the pKa in series [2] is 9.55. The pD2 in series [5] amounted to 7.08.

`c1ccc(NC2=NCCN2)cc1`: the logD in series [1] was -1.8. For the same compound, in series [4], the Activity is under 10%. In series [2], the pKa stood at 10.4. For the same compound, in series [5], the pD2 is 5.84. The deltaRm in series [3] was 0.

On to `Cc1cccc(Cl)c1N=C1NCCN1`, for which, in series [1], the logD was -0.4. Also, the Activity in series [4] was determined as 15%. In addition, in series [2], the pKa was determined as 9.2. For the same compound, the pD2 in series [5] was found to be 7.74. In series [3], this compound showed a deltaRm of 0.45.

The compound `CCc1cccc(CC)c1NC1=NCCN1` showed a logD in series [1] of -0.84. Besides, the Activity in series [4] is recorded as over 10%. In addition, the pKa in series [2] was 10.6. The pD2 in series [5] is on record as 7.61. In series [3], this compound returned a deltaRm of 0.95.

For the compound `COc1ccc(OC)c(N=C2NCCN2)c1`, in series [1], the logD was -1.78. The Activity in series [4] was under 10%. For the same compound, the pKa in series [2] was 10.2. Besides, the pD2 in series [5] is 6.98. For the same compound, the deltaRm in series [3] is reported as -0.42.

For the compound `COc1cc(C)c(N=C2NCCN2)c(C)c1`, the LD50 in series [6] is 54 µM.

On to `Fc1cccc(F)c1N=C1NCCN1`, for which the pH-dependent lipophilicity (logD) in series [1] worked out at 0.02. In addition, in series [4], the Activity is reported as under 10%. The same compound yielded a pKa in series [2] of 8.4. In addition, the pD2 in series [5] came to 7.23. Also, the deltaRm in series [3] worked out at 0.24.

`Clc1cccc(Cl)c1NC1=NCCN1` [CLONIDINE] displayed a logD in series [1] of 0.83. In addition, the Activity in series [4] came to 15%. This compound also returned a pKa in series [2] of 8.05. Moreover, the pD2 in series [5] was found to be 7.66. For the same compound, in series [3], the deltaRm was 0.38.

`Brc1ccc(N=C2NCCN2)cc1`: the logD in series [1] is -0.5. The Activity in series [4] was under 10%. In series [2], the pKa was found to be 9.65. Also, in series [5], the pD2 worked out at 6.09. Moreover, in series [3], the deltaRm stood at 0.58.

For `Brc1cccc(Br)c1N=C1NCCN1`, the logD in series [1] came to 1.15. The Activity in series [4] turned out to be 15%. In series [2], this compound displayed a pKa of 7.95. For the same compound, the pD2 in series [5] was found to be 7.28. Also, in series [3], the deltaRm is 0.61.

Compound `Cc1cc(Cl)ccc1N=C1NCCN1` showed a log distribution coefficient (logD) in series [1] of -0.58. Also, the Activity in series [4] is under 10%. The compound further came in with a pKa in series [2] of 9.75. For the same compound, the pD2 in series [5] stood at 7.11. Moreover, the deltaRm in series [3] is listed as 0.75.

In series [1], `CC(C)c1cccc(C(C)C)c1N=C1NCCN1` registered a logD of -0.21. For the same compound, in series [4], the Activity is listed as under 10%. Also, the pKa in series [2] amounted to 10.7. Further, the pD2 in series [5] was determined as 5.79. The compound further displayed a deltaRm in series [3] of 1.32.

For `Cc1cc(O)cc(C)c1N=C1NCCN1`, the pD2 in series [5] worked out at 7.51.

In the case of `FC(F)(F)c1ccccc1N=C1NCCN1`, in series [1], the logD came out at 0. Further, the Activity in series [4] is under 10%. This compound also returned a pKa in series [2] of 8.8. The pD2 in series [5] stood at 6.13.

`Cc1ccc(Cl)cc1N=C1NCCN1` returned a logD in series [1] of -0.3. Further, the Activity in series [4] is recorded as under 10%. Further, in series [2], the pKa was found to be 9.5. Moreover, the pD2 in series [5] was determined as 7.64. In series [3], the deltaRm came to 0.72.

Consider `Cc1ccc(N=C2NCCN2)c(C)c1`, for which, in series [1], the logD was -1.46. Also, the Activity in series [4] is over 10%. In series [2], this compound displayed a pKa of 10.7. Moreover, the pD2 in series [5] is 7.74. This compound registered a deltaRm in series [3] of 0.43.

Consider `COc1cc(OC)c(N=C2NCCN2)cc1Cl`, for which, in series [1], the pH-dependent lipophilicity (logD) was -1.37. Moreover, the Activity in series [4] was under 10%. Further, the pKa in series [2] is 10.2. For the same compound, in series [5], the pD2 is 6.68. The deltaRm in series [3] is given as -0.07.

In series [1], `Clc1ccc(Cl)c(N=C2NCCN2)c1` showed a logD of 0.95. The Activity in series [4] is under 10%. Also, the pKa in series [2] came to 8. In series [5], the pD2 is listed as 7.65. Besides, in series [3], the deltaRm was 0.71.

The record behind these values is ChEMBL document CHEMBL3272257, “Clonidine and related analogues. Quantitative correlations” (J Med Chem, 1976).
